Reference: US10065941B2, “Aminotriazine derivative and pharmaceutical composition comprising the same” (Shionogi & Co., Ltd., priority 2013, dated 2018)

Each molecule was assayed against human P2X3 receptor (Homo sapiens (Human), UniProt P56373) (assay: Evaluation of human P2X3 receptor inhibitory activity (Test Example 1)). Settings: C6BU-1 cell transfected with human P2X3 receptor gene, FLIPR 384.
Assay type: cell-based
Description: Stably expressing cell line (C6BU-1 cell transfected with human P2X3 receptor gene (GenBank accession number Y07683) was used. The cells were seeded in a 384-well PDL-coated microtiter plate at a concentration of 3000 cells/well and cultured in the medium (8.3% fetal bovine serum, 8.3% horse serum, and 1% antibiotic and antifungal in DMEM) for one day at 37° C. under 5% carbon dioxide atmosphere. The medium was replaced with 4 μM Fluo-3-AM solution (20 mM HEPES, 137 mM NaCl, 2.7 mM KCl, 0.9 mM MgCl2, 5.0 mM CaCl2, 5.6 mM D-glucose, 2.5 mM probenecid, 0.5% BSA, and 0.04% Pluronic F-127, pH 7.5) and incubated at 37° C. under 5% dioxide carbon atmosphere for one hour. The plate was washed with washing buffer (20 mM HEPES, 137 mM NaCl, 2.7 mM KCl, 0.9 mM MgCl2, 5.0 mM CaCl2, 5.6 mM D-glucose, 2.5 mM probenecid, pH7.5), and each well was added with 20 μL of the washing buffer. The plate was placed in High-Throughput Screening System FLIPR 384 (Molecular Device Co.). Measurement of fluorescence intensity by FLIPR 384 was started, and 20 μL of DMSO solutions containing different concentrations of the test compound as prepared by dilution with dilution buffer (20 mM HEPES, 137 mM NaCl, 2.7 mM KCl, 0.9 mM MgCl2, 5.0 mM CaCl2, 5.6 mM D-glucose, 2.5 mM probenecid, 0.1% Pluronic F-127, pH7.5) were dispensed to each well through the built-in automatic dispenser. Five minutes after, 150 nM ATP solution (25 μL) prepared by dilution with the dilution buffer was dispensed through the built-in automatic dispenser, and the measurement of fluorescence intensity was continued for 4 min. For each well, the specific maximum fluorescence intensity was calculated as the ratio of the maximum fluorescence intensity after addition of the ATP solution to the fluorescence intensity at the starting of the measurement. […] The specific maximum fluorescence intensity and IC50 were calculated using Spotfire (Science & Technology Systems, Inc.)

human P2X3 receptor, sequence (P56373 whole entry): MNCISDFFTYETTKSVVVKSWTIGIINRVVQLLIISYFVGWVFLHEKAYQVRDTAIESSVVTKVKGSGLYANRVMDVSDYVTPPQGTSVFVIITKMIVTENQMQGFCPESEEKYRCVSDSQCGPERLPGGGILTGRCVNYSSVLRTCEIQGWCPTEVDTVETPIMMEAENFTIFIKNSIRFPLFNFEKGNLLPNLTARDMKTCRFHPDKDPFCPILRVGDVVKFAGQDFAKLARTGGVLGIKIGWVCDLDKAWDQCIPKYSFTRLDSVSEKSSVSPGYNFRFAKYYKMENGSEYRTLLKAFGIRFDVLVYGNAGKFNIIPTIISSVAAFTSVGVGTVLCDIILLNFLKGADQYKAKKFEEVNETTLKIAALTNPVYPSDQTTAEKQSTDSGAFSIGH

| Structure (SMILES) | IC50 [nM] |
| --- | --- |
| Cc1ccc(Oc2ccc(/N=c3\[nH]c(=O)n(C[C@H](C)C(=O)O)c(=O)n3Cc3ccc(Cl)cc3)cc2)nc1 [Compound I-054] | 5 |
| COC(=O)C(C)(C)Cn1c(=O)[nH]/c(=N\c2ccc(Oc3ccc(C)cn3)cc2)n(Cc2ccc(Cl)cc2)c1=O [Compound I-055] | 9 |
| Cc1ccc(Cn2c(=O)n(C[C@H](C)C(=O)O)c(=O)[nH]/c2=N\c2ccc(Oc3ncccc3F)cc2)cc1 [Compound I-056] | 7 |
| O=C(O)C1(Cn2c(=O)[nH]/c(=N\c3ccc(Oc4ccc(F)cn4)cc3)n(Cc3ccc(Cl)cc3)c2=O)COC1 [Compound I-059] | 16 |
| COC(=O)[C@@H](C)Cn1c(=O)[nH]/c(=N\c2ccc(Oc3cc(Cl)ccn3)cc2)n(Cc2ccc(Cl)cc2)c1=O [Compound I-060] | 24 |
| CCOC(=O)[C@H]1C[C@H](n2c(=O)[nH]/c(=N\c3ccc(Oc4ncccc4F)cc3)n(Cc3ccc(Cl)cc3)c2=O)C1 [Compound I-061] | 62 |
| CCOC(=O)[C@H]1C[C@@H](n2c(=O)[nH]/c(=N\c3ccc(Oc4ncccc4F)cc3)n(Cc3ccc(Cl)cc3)c2=O)C1 [Compound I-062] | 31 |
| O=c1[nH]/c(=N\c2ccc(Oc3ncccc3F)cc2)n(Cc2ccc(Cl)cc2)c(=O)n1[C@H]1C[C@@H](C(=O)O)C1 [Compound I-064] | 10 |
| C[C@@H](Cn1c(=O)[nH]/c(=N\c2ccc(Oc3cc(Cl)ccn3)cc2)n(Cc2ccc(Cl)cc2)c1=O)C(=O)O [Compound I-065] | 8 |
| CCOC(=O)C1(Cn2c(=O)[nH]/c(=N\c3ccc(Oc4ncccc4F)cc3)n(Cc3ccc(Cl)cc3)c2=O)CC1 [Compound I-066] | 15 |
| O=C(O)C1(Cn2c(=O)[nH]/c(=N\c3ccc(Oc4ncccc4F)cc3)n(Cc3ccc(Cl)cc3)c2=O)CC1 [Compound I-067] | 11 |
| COC(=O)[C@@H](C)Cn1c(=O)[nH]/c(=N\c2ccc(Oc3cc(F)ccn3)cc2)n(Cc2ccc(Cl)cc2)c1=O [Compound I-068] | 5 |
| COc1ccnc(Oc2ccc(/N=c3\[nH]c(=O)n(C[C@H](C)C(=O)O)c(=O)n3Cc3ccc(Cl)cc3)cc2)c1 [Compound I-069] | 7 |
| COC(=O)[C@H](C)[C@H](C)n1c(=O)[nH]/c(=N\c2ccc(Oc3ccc(OC(F)F)cn3)cc2)n(Cc2ccc(Cl)cc2)c1=O [Compound I-071] | 38 |
| C[C@@H](C(=O)O)[C@H](C)n1c(=O)[nH]/c(=N\c2ccc(Oc3ccc(OC(F)F)cn3)cc2)n(Cc2ccc(Cl)cc2)c1=O [Compound I-072] | 6 |
| COC(=O)[C@H](C)[C@H](C)n1c(=O)[nH]/c(=N\c2ccc(Oc3ccc(C)cn3)cc2)n(Cc2ccc(Cl)cc2)c1=O [Compound I-073] | 15 |
| Cc1ccc(Oc2ccc(/N=c3\[nH]c(=O)n([C@@H](C)[C@@H](C)C(=O)O)c(=O)n3Cc3ccc(Cl)cc3)cc2)nc1 [Compound I-074] | 5 |
| COC(=O)[C@H](C)[C@H](C)n1c(=O)[nH]/c(=N\c2ccc(Oc3cc(C#N)ccn3)cc2)n(Cc2ccc(Cl)cc2)c1=O [Compound I-075] | 21 |
| COC(=O)[C@@H](C)Cn1c(=O)[nH]/c(=N\c2ccc(Oc3cc(C)ccn3)cc2)n(Cc2ccc(Cl)cc2)c1=O [Compound I-076] | 22 |
| Cc1cccnc1Oc1ccc(/N=c2\[nH]c(=O)n(C[C@H](C)C(=O)O)c(=O)n2Cc2ccc(Cl)cc2)cc1 [Compound I-077] | 10 |
| Cc1cccnc1Oc1ccc(/N=c2\[nH]c(=O)n(CC(C)(C)C(=O)O)c(=O)n2Cc2ccc(Cl)cc2)cc1 [Compound I-078] | 19 |
| COc1ccc(Oc2ccc(/N=c3\[nH]c(=O)n(C[C@H](C)C(=O)O)c(=O)n3Cc3ccc(Cl)cc3)cc2)nc1 [Compound I-079] | 5 |
| Cc1ccnc(Oc2ccc(/N=c3\[nH]c(=O)n(C[C@H](C)C(=O)O)c(=O)n3Cc3ccc(Cl)cc3)cc2)c1 [Compound I-080] | 10 |
| COC(=O)C(C)(C)Cn1c(=O)[nH]/c(=N\c2ccc(Oc3cc(Cl)ccn3)cc2)n(Cc2ccc(Cl)cc2)c1=O [Compound I-081] | 38 |
